Patent publication US8039499B2, “Ester compound and its use” (Sumitomo Chemical Company, Limited, priority 2006, dated 2011)

Tests used:
[1] = test system: adult houseflies; assay: Test Example 2: housefly knock down, spray in cubic glass chamber; assay type: in vivo; details: active ingredient concentration 0.00625%, 0.7 ml sprayed, counted 10 minutes after spraying, repeated twice
Experimental: The formulation of the sample compound obtained in Formulation Example 7 was diluted with dichloromethane/deodorized kerosene=1/9 mixed solution so that the active ingredient concentration was 0.00625%, to prepare a test solution.
Ten adult houseflies (4 or 5 males and 4 or 5 females each) were left in a cubic glass chamber (70 cm at each side), and 0.7 ml of the test solution was sprayed through a small window at the side of the chamber using a spray gun at a spraying pressure of 0.9 kg/cm^2. 10 minutes after spraying, the number of knocked-down insects was counted (repeated twice).

[2] = test system: German cockroach (Blattella germanica); assay: Test Example 3: German cockroach knock down, spray in test chamber; assay type: in vivo; details: active ingredient concentration 0.00625%, 1.5 ml sprayed, counted 1 minutes after spraying, repeated twice
Experimental: The formulation of the sample compound obtained in Formulation Example 7 was diluted with dichloromethane/deodorized kerosene=1/9 mixed solution so that the active ingredient concentration was 0.00625%, to prepare a test medicinal solution.
A container (8.75 cm in diameter, 7.5 cm in height, bottom covered 16-mesh iron net and inside wall painted butter for preventing tested pill bugs to escape) having 10 German cockroach (5 males and 5 females, Blattella germanica) therein was set on the bottom of a test chamber (46 cm×46 cm, height: 70 cm). From a height of 60 cm above the upper surface of the container, 1.5 ml of the test solution was sprayed using a spray gun at a spraying pressure of 0.4 kg/cm^2. After 30 seconds, the German cockroach were taken out and put into a clean plastic cup having 8.2 cm in diameter. The lid having holes was covered on the cup. 1 minutes after spraying, the number of knocked-down insects was counted (repeated twice).

Structure (SMILES)	knock down ratio of sample insects [1]	knock down ratio of sample insects [2]
C#CCN1CC(=O)N(COC(=O)[C@@H]2[C@@H](/C=C(\C)C=NOC)C2(C)C)C1=O [present compound (1), 2,5-dioxo-3-(2-propynyl)imidazolidin-1-ylmethyl (1R)-trans-3-[(E)-3-methoxyimino-2-methyl-1-propenyl]-2,2-dimethylcyclopropanecarboxylate]	100%	100%
C#CCN1CC(=O)N(COC(=O)[C@@H]2[C@@H](C=C(C)C)C2(C)C)C1=O [comparative compound (A), 2,5-dioxo-3-(2-propynyl)imidazolidine-1-ylmethyl (1R)-trans-2,2-dimethyl-3-(2-methyl-1-propenyl)cyclopropane carboxylate]	42%	–
C#CCc1ccc(COC(=O)[C@@H]2[C@@H](/C=C(\C)C=NOC)C2(C)C)o1 [comparative compound (B), 5-(2-propynyl)furan-2-ylmethyl (1R)-trans-3-[(E)-3-methoxyimino-2-methyl-1-propenyl]-2,2-dimethylcyclopropanecarboxylate]	–	0%
